The test concerns the target interaction between GST-MAGEA11 MHD and FAM-PCF11_4 peptide (MAGE-A11:PCF11) (Homo sapiens (Human), UniProt P43364). As to the kind of experiment: TR-FRET dose response competition assay for disruption of MAGE-A11:PCF11 binding. The conditions noted are these: Dose response TR-FRET screening of nine scaffold groups against MAGE-A11:PCF11; read-out: consensus IC50. In a few lines: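 Competition TR-FRET at room temperature in 50 mM Tris pH 7.5, 20 mM MgCl2, 0.1 mg/ml BSA, 1 mM DTT: final 5 nM GST-MAGEA11 MHD, 5 nM Tb-anti-GST, 200 nM FAM-PCF11_4, 90 min. Ratio 520/490 nm converted to % inhibition; IC50 from sigmoidal fit.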
On the technique in general: Time-resolved FRET reads energy transfer from a long-lived donor to a nearby acceptor.

In patent publication US20240246941A1, “SUBSTITUTED 4-(3-AMINOPROP-1-YL)AMINOQUINOLINE ANALOGS AS MODULATORS OF MELANOMA-ASSOCIATED ANTIGEN 11 UBIQUITIN LIGASE” (ST. JUDE CHILDREN'S RESEARCH HOSPITAL, INC., priority 2020, published 2024) one finds IC50 data, which are given here for 56 compounds.

Each structure is given as a SMILES string. pIC50: −log10 of the molar value.

A word on the pIC50: it is the IC50 on a negative log10 scale, so that one unit is a factor of ten.

Chain of interaction between GST-MAGEA11 MHD and FAM-PCF11_4 peptide (MAGE-A11:PCF11) (P43364 218-429): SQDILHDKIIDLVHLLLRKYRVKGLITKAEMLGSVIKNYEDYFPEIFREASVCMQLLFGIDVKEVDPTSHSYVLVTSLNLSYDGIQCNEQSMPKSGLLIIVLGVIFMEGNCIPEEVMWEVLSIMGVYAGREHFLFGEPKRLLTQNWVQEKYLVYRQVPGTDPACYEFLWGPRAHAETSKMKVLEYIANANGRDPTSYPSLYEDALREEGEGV

With `CCCn1c(=O)[nH]c(=O)c2c1nc(-c1cccc(C)c1)n2CCOC` [SJ000423281-1], the pIC50 was 4.16. Turning to `CCCn1c(=O)[nH]c(=O)c2c1nc(-c1ccc(Cl)cc1)n2CCOC` [SJ000424475-1], the pIC50 was 4.16. Consider `CCCCn1c(=O)[nH]c(=O)c2c1nc(-c1ccc(C)cc1)n2C` [SJ000425093-1], for which the pIC50 is 4.16. In the case of `CCCn1c(=O)[nH]c(=O)c2c1nc(-c1ccc(OC)c(C)c1)n2CCOC` [SJ000425187-1] it was 4.16; in that of `COCCn1c(-c2ccc(OC)cc2)nc2c1c(=O)[nH]c(=O)n2CC(C)C` [SJ000425224-1], 4.16. On to `CCCCn1c(=O)[nH]c(=O)c2c1nc(-c1ccc(OC)c(C)c1)n2C` [SJ000425256-1], for which the pIC50 is 4.16.

On to `CCCCn1c(=O)[nH]c(=O)c2c1nc(-c1ccc(OC)cc1)n2C` [SJ000425260-1], for which the pIC50 was 4.16. For `CC(C)NC(=O)NC(=O)Cn1cnc2cc(-c3ccccc3)sc2c1=O` [SJ000425388-1], the negative-log IC50 (pIC50) was 4.16. In the case of `CN(C)C(=O)Cn1cnc2cc(-c3ccccc3)sc2c1=O` [SJ000425603-1], the pIC50 is 4.16.

Regarding `CCC(C)(C)NC(=O)Cn1cnc2cc(-c3ccccc3)sc2c1=O` [SJ000425613-1], the pIC50 was 4.16. On to `CCN(CC)C(=O)Cn1cnc2cc(-c3ccccc3)sc2c1=O` [SJ000425666-1], for which the pIC50 is 4.16. As to `COCCn1c(-c2cccc(C)c2)nc2c1c(=O)[nH]c(=O)n2CC(C)C` [SJ000426389-1], the pIC50 was 4.16. In the case of `C=CCNC(=O)NC(=O)Cn1cnc2cc(-c3ccccc3)sc2c1=O` [SJ000426777-1], the pIC50 is 4.16. With `CCCn1c(=O)[nH]c(=O)c2c1nc(-c1cccc(OC)c1)n2CCOC` [SJ000427207-1], the negative-log IC50 (pIC50) was 4.16.

On to `CCCCn1c(=O)[nH]c(=O)c2c1nc(-c1ccc(OCC)c(OC)c1)n2CCOC` [SJ000427387-1], for which the pIC50 was 4.16. Consider `COCC(C)NC(=O)Cn1cnc2cc(-c3ccc(Br)cc3)sc2c1=O` (centres unmarked) [SJ000427828-1], for which the pIC50 was 4.16. In the case of `CC(C)(C)NC(=O)NC(=O)Cn1cnc2cc(-c3ccccc3)sc2c1=O` [SJ000427956-1] it was 4.16.

For `C=C(C)CN(CC)C(=O)Cn1cnc2cc(-c3ccc(OC)cc3)sc2c1=O` [SJ000429044-1], the pIC50 is 4.16. Regarding `CCCCn1c(=O)[nH]c(=O)c2c1nc(-c1ccc(O)c(OC)c1)n2CCC` [SJ000429070-1], the negative-log IC50 (pIC50) was 4.16. Next, `CCn1c(-c2ccc(O)c(OC)c2)nc2c1c(=O)[nH]c(=O)n2Cc1ccccc1` [SJ000430392-1]: 4.16; `COc1cc(-c2nc3c(c(=O)[nH]c(=O)n3Cc3ccccc3)n2C)ccc1O` [SJ000430813-1]: 4.16; `CCCCn1c(=O)[nH]c(=O)c2c1nc(-c1ccc(OCC(=O)O)cc1)n2CCC(C)C` [SJ000431347-1]: 4.16. Take `CCCn1c(=O)[nH]c(=O)c2c1nc(-c1cccc(Br)c1)n2CCOC` [SJ000431389-1]: the pIC50 was 4.16. `C=CCN(CC=C)C(=O)Cn1cnc2cc(-c3ccc(OC)cc3)sc2c1=O` [SJ000431447-1]: the pIC50 was 4.16.

As to `CCCn1c(-c2cc(Br)ccc2F)nc2c1c(=O)[nH]c(=O)n2Cc1ccccc1` [SJ000437843-1], the pIC50 is 4.16. Take `Cn1c(-c2ccc(OCC(=O)O)cc2)nc2c1c(=O)[nH]c(=O)n2Cc1ccccc1` [SJ000441071-1]: the pIC50 was 4.16.

For `COc1ccc(CNC(=O)Cn2cnc3cc(-c4ccc(OC)cc4)sc3c2=O)cc1` [SJ000441316-1], the pIC50 is 4.16. In the case of `COc1ccc(-c2cc3ncn(CC(=O)NCc4ccc(F)cc4)c(=O)c3s2)cc1` [SJ000443969-1], the pIC50 is 4.16.

`O=C(Cn1cnc2cc(-c3ccc(Cl)cc3)sc2c1=O)NCc1ccc(F)cc1` [SJ000444020-1]: the pIC50 was 4.16.

As for `COc1ccccc1CNC(=O)Cn1cnc2cc(-c3ccc(Cl)cc3)sc2c1=O` [SJ000444040-1], the pIC50 was 4.16. For the compound `Cc1ccc(CNC(=O)Cn2cnc3cc(-c4ccc(Cl)cc4)sc3c2=O)cc1` [SJ000445272-1], the pIC50 is 4.16. For `COc1ccc(-c2cc3ncn(CC(=O)NCc4ccc(C)cc4)c(=O)c3s2)cc1` [SJ000445282-1], the pIC50 is 4.16.

For `CC(=O)Cn1cnc2cc(-c3ccccc3)sc2c1=O` [SJ000448314-1], the pIC50 is 4.16. As to `COc1ccc(-c2cc3ncn(CC(=O)NCc4ccccc4F)c(=O)c3s2)cc1` [SJ000449696-1], the pIC50 is 4.16. Turning to `COc1ccc(-c2cc3ncn(CC(=O)NCc4ccccc4Cl)c(=O)c3s2)cc1` [SJ000449845-1], the pIC50 is 4.16. Take `COC(=O)CSc1nc2cc(-c3ccccc3)sc2c(=O)n1CCN1CCOCC1` [SJ000451551-1]: the pIC50 was 4.16. With `CC(C)(C)C(=O)CSc1nc2cc(-c3ccccc3)sc2c(=O)n1CCN1CCOCC1` [SJ000451590-1], the pIC50 is 4.16. Take `CCCCCn1c(-c2cccc(OC)c2)nc2c1c(=O)[nH]c(=O)n2CCCC` [SJ000451928-1]: the pIC50 was 4.16. With `COc1ccccc1CNC(=O)Cn1cnc2cc(-c3ccccc3)sc2c1=O` [SJ000452125-1], the pIC50 is 4.16. Consider `CCCn1cnc2cc(-c3ccc(Cl)cc3)sc2c1=O` [SJ000452142-1], for which the pIC50 was 4.16. In the case of `CCCn1c(-c2ccc(OC)cc2)nc2c1c(=O)[nH]c(=O)n2Cc1ccccc1` [SJ000452204-1], the pIC50 was 4.16. Take `O=c1c2sc(-c3ccccc3)cc2nc(SCCO)n1CCN1CCOCC1` [SJ000452798-1]: the pIC50 was 4.16. `Cc1ccccc1CNC(=O)Cn1cnc2cc(-c3ccccc3)sc2c1=O` [SJ000453315-1]: the pIC50 was 4.16. Next, `CCCSc1nc2cc(-c3ccccc3)sc2c(=O)n1CCN1CCOCC1` [SJ000453419-1]: 4.16. Take `C=CCSc1nc2cc(-c3ccccc3)sc2c(=O)n1CCN1CCOCC1` [SJ000453564-1]: the pIC50 was 4.16.

For the compound `COc1ccc(-c2cc3ncn(CC(=O)NCc4ccccc4C)c(=O)c3s2)cc1` [SJ000455215-1], the pIC50 was 4.16. With `O=C(Cn1cnc2cc(-c3ccc(Cl)cc3)sc2c1=O)NCc1ccccc1F` [SJ000455225-1], the pIC50 is 4.16. In the case of `O=C(Cn1cnc2cc(-c3ccccc3)sc2c1=O)NCc1ccccc1Cl` [SJ000455850-1] it was 4.16. On to `C=C(C)CSc1nc2cc(-c3ccccc3)sc2c(=O)n1CCN1CCOCC1` [SJ000456069-1], for which the pIC50 was 6.07.

For `O=C(Cn1cnc2cc(-c3ccccc3)sc2c1=O)NCc1ccccc1OC(F)(F)F` [SJ000456118-1], the negative logarithm of the IC50 (pIC50) is 4.16. Take `C=C(C)Cn1cnc2cc(-c3ccc(Cl)cc3)sc2c1=O` [SJ000456507-1]: the pIC50 was 4.16. For `CCCn1c(-c2ccc(F)cc2)nc2c1c(=O)[nH]c(=O)n2Cc1ccccc1` [SJ000456724-1], the pIC50 was 4.16. For `COc1ccc(CNC(=O)Cn2cnc3cc(-c4ccc(Cl)cc4)sc3c2=O)cc1` [SJ000457620-1], the pIC50 was 4.16.

For the compound `COc1ccc(-c2cc3ncn(CC(=O)NCc4ccc(Cl)cc4)c(=O)c3s2)cc1` [SJ000457991-1], the pIC50 was 4.16.

On to `N#CCCn1cnc2cc(-c3ccc(F)cc3)sc2c1=O` [SJ000458551-1], for which the pIC50 is 4.16. For `CCCn1c(=O)[nH]c(=O)c2c1nc(-c1ccc(OC(F)F)c(OC)c1)n2CCOC` [SJ000459257-1], the pIC50 was 4.16.
